{
  "source": "paper PMC10052868",
  "about": "(European journal of medicinal chemistry, 2022)",
  "key": {"PfPK6": {"target": "PfPK6 (Plasmodium falciparum, UniProt Q8IDW1)", "experiment": "KinaseSeeker split-luciferase assay on PfPK6", "format": "binding, P. falciparum", "settings": "for remaining activity at 1 µM: read-out: PfPK6 activity remaining at 1 μM (%)"}, "P. falciparum 3D7": {"system": "P. falciparum 3D7", "experiment": "P. falciparum asexual blood stage viability assay", "format": "cell-based", "settings": "for fold improvement in P. falciparum blood stage potency on adding CF3 or OCF3: compared to parent compound without meta group (64, 66, 67 or 68)"}, "PfPKB": {"target": "PfPKB (Plasmodium falciparum, UniProt Q8I4W3)", "experiment": "KinaseSeeker assay on PfPKB", "format": "binding, P. falciparum"}, "PfNEK3": {"target": "T1, PfNEK3 (Plasmodium falciparum, UniProt Q8I629)", "T1 sequence (Q8I629 1-347)": "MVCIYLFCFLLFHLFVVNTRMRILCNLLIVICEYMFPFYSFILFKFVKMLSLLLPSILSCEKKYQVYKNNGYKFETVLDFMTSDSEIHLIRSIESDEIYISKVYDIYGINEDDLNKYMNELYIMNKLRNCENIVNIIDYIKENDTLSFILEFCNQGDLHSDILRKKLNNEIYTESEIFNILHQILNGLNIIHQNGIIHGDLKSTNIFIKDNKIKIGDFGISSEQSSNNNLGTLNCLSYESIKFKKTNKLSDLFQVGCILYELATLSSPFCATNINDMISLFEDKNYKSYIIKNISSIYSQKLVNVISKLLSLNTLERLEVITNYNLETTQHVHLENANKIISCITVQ", "experiment": "KinaseSeeker assay on PfNEK3", "format": "binding, P. falciparum"}, "[1]": {"system": "panel of 468 kinases (403 non-mutant kinases)", "format": "binding, human", "settings": "for number of non-mutant kinases inhibited with ≤1% control: 1 μM, out of 403 non-mutant kinases"}, "PfCDPK5": {"target": "PfCDPK5 (Plasmodium falciparum, UniProt A0A5K1K8H0)", "sequence (A0A5K1K8H0 whole entry)": "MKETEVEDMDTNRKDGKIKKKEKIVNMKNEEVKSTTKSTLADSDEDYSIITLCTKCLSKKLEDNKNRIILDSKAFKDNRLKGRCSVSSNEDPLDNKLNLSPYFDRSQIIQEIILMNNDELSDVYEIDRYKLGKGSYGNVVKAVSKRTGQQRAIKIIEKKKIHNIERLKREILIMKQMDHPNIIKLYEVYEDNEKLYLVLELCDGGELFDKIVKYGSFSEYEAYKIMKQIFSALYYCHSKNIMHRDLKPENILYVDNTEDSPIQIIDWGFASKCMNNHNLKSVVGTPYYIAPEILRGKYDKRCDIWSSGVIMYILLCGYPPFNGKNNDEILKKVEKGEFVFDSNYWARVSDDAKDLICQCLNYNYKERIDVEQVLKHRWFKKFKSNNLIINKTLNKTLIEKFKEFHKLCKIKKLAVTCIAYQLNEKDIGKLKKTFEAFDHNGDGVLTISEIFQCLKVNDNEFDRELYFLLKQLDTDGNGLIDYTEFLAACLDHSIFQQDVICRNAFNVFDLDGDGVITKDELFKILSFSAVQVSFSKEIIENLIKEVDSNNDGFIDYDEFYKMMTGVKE", "experiment": "KinaseSeeker assay on PfCDPK5", "format": "binding, P. falciparum"}, "PfGSK3": {"target": "PfGSK3 (Plasmodium falciparum, UniProt O77344)", "experiment": "KinaseSeeker assay on PfGSK3", "format": "binding, P. falciparum"}, "PfARK3": {"system": "PfARK3", "experiment": "KinaseSeeker assay on PfARK3", "format": "binding, P. falciparum", "settings": "duplicate"}, "P. berghei ANKA": {"system": "P. berghei ANKA", "experiment": "P. berghei liver stage parasite load assay in HepG2 cells", "format": "cell-based", "settings": "for P. berghei liver stage activity in words: inactive = EC50 not reported because <5-fold difference between observed EC50 and HepG2 CellTiter-Fluor cytotoxicity; for fold difference between P. berghei EC50 and CellTiter-Fluor CC50: HepG2 host cells"}, "PfNEK1": {"system": "PfNEK1", "experiment": "KinaseSeeker assay on PfNEK1", "format": "binding, P. falciparum", "settings": "duplicate"}, "PfPK5": {"target": "PfPK5 (Plasmodium falciparum, UniProt P61075)", "sequence (P61075 whole entry)": "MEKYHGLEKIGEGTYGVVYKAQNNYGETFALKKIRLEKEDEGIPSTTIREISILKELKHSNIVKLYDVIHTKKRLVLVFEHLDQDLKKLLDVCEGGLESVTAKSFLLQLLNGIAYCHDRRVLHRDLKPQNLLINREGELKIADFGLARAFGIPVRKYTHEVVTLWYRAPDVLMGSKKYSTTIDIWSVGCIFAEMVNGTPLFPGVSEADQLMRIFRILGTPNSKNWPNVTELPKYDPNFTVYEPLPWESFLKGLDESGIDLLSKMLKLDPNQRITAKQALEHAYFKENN", "experiment": "KinaseSeeker assay on PfPK5", "format": "binding, P. falciparum", "settings": "read-out: PfPK5 % Activity remaining at 1 μM"}, "PfPK9": {"system": "PfPK9", "experiment": "KinaseSeeker assay on PfPK9", "format": "binding, P. falciparum", "settings": "duplicate"}, "PfARK1": {"system": "PfARK1", "experiment": "KinaseSeeker assay on PfARK1", "format": "binding, P. falciparum", "settings": "duplicate"}, "[2]": {"settings": "GE = −ΔΔG / Δ(no. of heavy atoms), PfPK6 inhibition"}},
  "data": [
    {"compound": "COc1cc2nccc(Oc3ccc(NC(=O)Nc4cc(C(F)(F)F)ccc4F)c(F)c3)c2cc1OC", "note": "[Compound 40, 1-(4-((6,7-dimethoxyquinolin-4-yl)oxy)-2-fluorophenyl)-3-(2-fluoro-5-(trifluoromethyl)phenyl)urea]", "values": [
      {"measurement": "IC50", "setting": "PfPK6", "value": "< 5", "unit": "nM"},
      {"measurement": "Pf3D7 blood stage activity in dose-response", "setting": "P. falciparum 3D7; Inactive = no inhibition when tested up to 5 μM in two experiments, dose-response", "value": "Inactive^d"}
    ]},
    {"compound": "COc1cc2nccc(Oc3ccc(NC(=O)Nc4ccc(CN5CCN(C)CC5)c(C(F)(F)F)c4)c(F)c3)c2cc1OC", "note": "[Compound 45, 1-(4-((6,7-dimethoxyquinolin-4-yl)oxy)-2-fluorophenyl)-3-(4-((4-methylpiperazin-1-yl)methyl)-3-(trifluoromethyl)phenyl)urea diformate]", "values": [
      {"measurement": "IC50", "setting": "PfPKB", "value": "40 to 144", "unit": "nM"},
      {"measurement": "IC50", "setting": "PfNEK3", "value": "40 to 144", "unit": "nM"},
      {"measurement": "number of non-mutant kinases inhibited with ≤1% control", "setting": "[1]", "value": 134},
      {"measurement": "IC50", "setting": "PfCDPK5", "value": "40 to 144", "unit": "nM"},
      {"measurement": "IC50", "setting": "PfGSK3", "value": "40 to 144", "unit": "nM"}
    ]},
    {"compound": "COc1cc2nccc(Oc3ccc(NC(=O)Nc4ccc(CC5CCNCC5)cc4)c(F)c3)c2cc1OC", "note": "[Compound 67, 1-(4-((6,7-dimethoxyquinolin-4-yl)oxy)-2-fluorophenyl)-3-(4-(piperidin-4-ylmethyl)phenyl)urea]", "values": [
      {"measurement": "PfARK3 % Activity remaining at 1 μM", "setting": "PfARK3", "value": 100, "unit": "%"},
      {"measurement": "number of non-mutant kinases inhibited with ≤1% control", "setting": "[1]", "value": 22},
      {"measurement": "P. berghei liver stage activity in words", "setting": "P. berghei ANKA", "value": "inactive^g"},
      {"measurement": "remaining activity at 1 µM", "setting": "PfPK6", "value": 2, "unit": "%"},
      {"measurement": "PfNEK1 % Activity remaining at 1 μM", "setting": "PfNEK1", "value": 100, "unit": "%"}
    ]},
    {"compound": "COc1cc2nccc(Oc3ccc(NC(=O)Nc4ccc(C=C5CCNCC5)cc4)c(F)c3)c2cc1OC", "note": "[Compound 68, 1-(4-((6,7-dimethoxyquinolin-4-yl)oxy)-2-fluorophenyl)-3-(4-(piperidin-4-ylidenemethyl)phenyl)urea]", "values": [
      {"measurement": "PfARK3 % Activity remaining at 1 μM", "setting": "PfARK3", "value": 100, "unit": "%"},
      {"measurement": "remaining activity at 1 µM", "setting": "PfPK5", "value": 100, "unit": "%"},
      {"measurement": "PfPK9 % Activity remaining at 1 μM", "setting": "PfPK9", "value": 100, "unit": "%"},
      {"measurement": "fold difference between P. berghei EC50 and CellTiter-Fluor CC50", "setting": "P. berghei ANKA", "value": 1.9, "unit": "fold"},
      {"measurement": "P. berghei liver stage activity in words", "setting": "P. berghei ANKA", "value": "inactive^g"},
      {"measurement": "remaining activity at 1 µM", "setting": "PfPK6", "value": 1, "unit": "%"},
      {"measurement": "PfNEK1 % Activity remaining at 1 μM", "setting": "PfNEK1", "value": 100, "unit": "%"},
      {"measurement": "fold improvement in P. falciparum blood stage inhibitory activity over 41", "setting": "P. falciparum 3D7; compared to 41", "value": "approximately 4 fold"}
    ]},
    {"compound": "COc1cc2nccc(Oc3ccc(NC(=O)Nc4ccc(OC5CCN(C)CC5)c(C(F)(F)F)c4)c(F)c3)c2cc1OC", "note": "[Compound 75, 1-(4-((6,7-dimethoxyquinolin-4-yl)oxy)-2-fluorophenyl)-3-(4-((1-methylpiperidin-4-yl)oxy)-3-(trifluoromethyl)phenyl)urea]", "values": [
      {"measurement": "fold difference between P. berghei EC50 and CellTiter-Fluor CC50", "setting": "P. berghei ANKA", "value": 1.9, "unit": "fold"},
      {"measurement": "P. berghei liver stage activity in words", "setting": "P. berghei ANKA", "value": "inactive^g"},
      {"measurement": "remaining activity at 1 µM", "setting": "PfPK6", "value": 0, "unit": "%"},
      {"measurement": "PfNEK1 % Activity remaining at 1 μM", "setting": "PfNEK1", "value": 100, "unit": "%"},
      {"measurement": "fold improvement in P. falciparum blood stage potency on adding CF3 or OCF3", "setting": "P. falciparum 3D7", "value": 8, "unit": "fold"}
    ]},
    {"compound": "COc1cc2nccc(Oc3ccc(NC(=O)Nc4ccc(CC5CCNCC5)c(C(F)(F)F)c4)c(F)c3)c2cc1OC", "note": "[Compound 79, 1-(4-((6,7-dimethoxyquinolin-4-yl)oxy)-2-fluorophenyl)-3-(4-(piperidin-4-ylmethyl)-3-(trifluoromethyl)phenyl)urea]", "values": [
      {"measurement": "IC50", "setting": "PfPK6", "value": "< 5", "unit": "nM"},
      {"measurement": "remaining activity at 1 µM", "setting": "PfPK6", "value": 1, "unit": "%"},
      {"measurement": "PfNEK1 % Activity remaining at 1 μM", "setting": "PfNEK1", "value": 100, "unit": "%"},
      {"measurement": "PfARK1 % Activity remaining at 1 μM", "setting": "PfARK1", "value": 100, "unit": "%"}
    ]},
    {"compound": "COc1cc2nccc(Oc3ccc(NC(=O)Nc4ccc(C=C5CCNCC5)c(OC(F)(F)F)c4)c(F)c3)c2cc1OC", "note": "[Compound 82, 1-(4-((6,7-dimethoxyquinolin-4-yl)oxy)-2-fluorophenyl)-3-(4-(piperidin-4-ylidenemethyl)-3-(trifluoromethoxy)phenyl)urea]", "values": [
      {"measurement": "fold improvement in P. falciparum blood stage potency on adding CF3 or OCF3", "setting": "P. falciparum 3D7", "value": 2, "unit": "fold"}
    ]},
    {"compound": "COc1cc2nccc(Oc3ccc(NC(=O)Nc4ccc(F)cc4F)c(F)c3)c2cc1OC", "note": "[Ki8751, reference compound]", "values": [
      {"measurement": "number of non-mutant kinases inhibited with ≤1% control", "setting": "[1]", "value": 16},
      {"measurement": "selectivity score S1 (1 μM)", "setting": "[1]; KINOMEscan, 403 non-mutant kinases", "value": 0.040},
      {"measurement": "group efficiency (GE) of the 7-methoxy group", "setting": "PfPK6; [2]", "value": "0.81 ± 0.04"},
      {"measurement": "group efficiency (GE) of the entire urea group", "setting": "PfPK6; [2]", "value": "0.39 ± 0.02"},
      {"measurement": "group efficiency (GE) of the tail phenyl ring", "setting": "PfPK6; [2]", "value": "> 0.41 ± 0.005"}
    ]}
  ]
}
